Measured values as given in patent US20080194585A1, “Fungicidal Pyrazine Derivatives” (priority 2005, published 2008).
Marks after values point to notes of the source that are not given here.

Key:
Plasmopara viticola = test: Test D: grape downy mildew, spray after inoculation of grape seedlings; format: in vivo
From the text: Upon removal, disease ratings were made. […] A dash (-) indicates no test results.

Phytophthora infestans = test: whole plant or invertebrate; format: in vivo
fusarium graminearium = test: Test I: wheat head scab, preventive spray on wheat seedlings
Experimental: (the causal agent of wheat head scab) and incubated in a saturated atmosphere at 20° C. for 72 h, and then moved to a growth chamber at 22° C. for 5 days, after which disease ratings were made.

[1] = test system: Puccinia recondita f. sp. tritici; test: Test K: wheat leaf rust, preventive spray on wheat seedlings
Botrytis cinerea = test: Test E: tomato botrytis, preventive spray on tomato seedlings
Septoria nodorum = test: Test H: wheat glum blotch, preventive spray on wheat seedlings
Experimental: (the causal agent of wheat glum blotch) and incubated in a saturated atmosphere at 20° C. for 48 h, and then moved to a growth chamber at 22° C. for 5 days, after which disease ratings were made.

[2] = test system: Erysiphe graminis f. sp. tritici; test: Test L: wheat powdery mildew, preventive spray on wheat seedlings
Sclerotinia sclerotiorum = test: Test C: cucumber white mold, preventive spray on cucumber seedlings
Pythium aphanidermatum = test: Test A: bluegrass pythium blight, preventive spray on bluegrass seedlings
Rhizoctonia oryzae = test: Test G: turf brown patch, preventive spray on creeping bent grass seedlings
Experimental: (the causal agent of turf brown patch) and incubated in a saturated atmosphere at 27° C. for 24 h, and then moved to a growth chamber at 27° C. for 5 days, after which disease ratings were made.

[3] = test system: Colletotrichum orbiculare; test: Test B: cucumber Colletotrichum anthracnose, preventive spray on cucumber seedlings

CC(C)Cn1c(-c2c(F)cccc2F)c(Cl)nc(-n2cccn2)c1=O [Compound 1, 5-Chloro-6-(2,6-difluorophenyl)-1-(2-methylpropyl)-3-(1H-pyrazol-1-yl)-2(1H)-pyrazinone]
pest or weed control at 200 ppm (Plasmopara viticola; Plasmopara viticola, 168 h, 200 ppm, read-out: Test D disease control rating): 0%
pest or weed control at 200 ppm (Phytophthora infestans; Phytophthora infestans, in Solanum lycopersicum, topical, 144 h, read-out: Test F disease control rating): 0%
pest or weed control at 200 ppm (fusarium graminearium; Fusarium, in Triticum aestivum, topical, 192 h, read-out: Test I disease control rating, 200 ppm): 0%
pest or weed control at 200 ppm ([1]; Puccinia recondita, in Triticum aestivum, 192 h, read-out: Test K disease control rating): 99%
pest or weed control at 200 ppm (Botrytis cinerea; Botrytis cinerea, in Solanum lycopersicum, topical, 72 h, read-out: Test E disease control rating): 100%
pest or weed control at 200 ppm (Septoria nodorum; Parastagonospora nodorum, in Triticum aestivum, topical, 168 h, read-out: Test H disease control rating, 200 ppm): 99%
pest or weed control at 200 ppm ([2]; Blumeria graminis, in Triticum aestivum, 168 h, read-out: Test L disease control rating, 200 ppm): 93%
pest or weed control at 200 ppm (Sclerotinia sclerotiorum; Sclerotinia sclerotiorum, in Cucumis sativus, 168 h, read-out: Test C disease control rating, 200 ppm): 0%
pest or weed control at 200 ppm (Pythium aphanidermatum; Pythium aphanidermatum, 120 h, read-out: Test A disease control rating): 0%
pest or weed control at 200 ppm (Rhizoctonia oryzae; Waitea circinata, in Agrostis stolonifera, topical, 144 h, read-out: Test G disease control rating, 200 ppm): 78%
pest or weed control at 200 ppm ([3]; Colletotrichum orbiculare, in Cucumis sativus, 144 h, read-out: Test B disease control rating, 200 ppm): 0%

Cn1c(-c2ccccc2F)c(Cl)nc(-n2cncn2)c1=O [Compound 15]
Test D disease control rating (Plasmopara viticola; 200 ppm): 0%
Test F disease control rating (Phytophthora infestans; 200 ppm): 0%
Test I disease control rating (fusarium graminearium; 200 ppm): 0%
Test K disease control rating ([1]; 200 ppm): 0%
Test E disease control rating (Botrytis cinerea; 200 ppm): 0%
Test H disease control rating (Septoria nodorum; 200 ppm): 0%
Test L disease control rating ([2]; 200 ppm): 0%
Test C disease control rating (Sclerotinia sclerotiorum; 200 ppm): 0%
Test A disease control rating (Pythium aphanidermatum; 200 ppm): 0%
Test G disease control rating (Rhizoctonia oryzae; 200 ppm): 0%
Test B disease control rating ([3]; 200 ppm): 0%

CC(C)Cn1c(-c2c(F)cccc2Cl)c(Cl)nc(-n2cccn2)c1=O [compound 9]
Test D disease control rating (Plasmopara viticola; 200 ppm): 49%
Test F disease control rating (Phytophthora infestans; 200 ppm): 88%
Test I disease control rating (fusarium graminearium; 200 ppm): 80%
Test K disease control rating ([1]; 200 ppm): 100%
Test E disease control rating (Botrytis cinerea; 200 ppm): 100%
Test H disease control rating (Septoria nodorum; 200 ppm): 100%
Test L disease control rating ([2]; 200 ppm): 99%
Test C disease control rating (Sclerotinia sclerotiorum; 200 ppm): 98%
Test A disease control rating (Pythium aphanidermatum; 200 ppm): 62%
Test G disease control rating (Rhizoctonia oryzae; 200 ppm): 82%
Test B disease control rating ([3]; 200 ppm): 100%

Cn1c(-c2ccccc2F)c(Cl)nc(-n2cccn2)c1=O [compound 14]
Test D disease control rating (Plasmopara viticola; 200 ppm): 0%
Test F disease control rating (Phytophthora infestans; 200 ppm): 27%
Test I disease control rating (fusarium graminearium; 200 ppm): 0%
Test K disease control rating ([1]; 200 ppm): 0%
Test E disease control rating (Botrytis cinerea; 200 ppm): 79%
Test H disease control rating (Septoria nodorum; 200 ppm): 0%
Test L disease control rating ([2]; 200 ppm): 21%
Test C disease control rating (Sclerotinia sclerotiorum; 200 ppm): 0%
Test A disease control rating (Pythium aphanidermatum; 200 ppm): 0%
Test G disease control rating (Rhizoctonia oryzae; 200 ppm): 0%
Test B disease control rating ([3]; 200 ppm): 0%

O=c1c(N2CCC=N2)nc(Cl)c(-c2c(F)cccc2F)n1CC1CC1 [compound 16]
Test D disease control rating (Plasmopara viticola; 200 ppm): 8%
Test F disease control rating (Phytophthora infestans; 200 ppm): 84%
Test I disease control rating (fusarium graminearium; 200 ppm): 0%
Test K disease control rating ([1]; 200 ppm): 68%
Test E disease control rating (Botrytis cinerea; 200 ppm): 99%
Test H disease control rating (Septoria nodorum; 200 ppm): 0%
Test L disease control rating ([2]; 200 ppm): 26%
Test C disease control rating (Sclerotinia sclerotiorum; 200 ppm): 0%
Test A disease control rating (Pythium aphanidermatum; 200 ppm): 0%
Test G disease control rating (Rhizoctonia oryzae; 200 ppm): 0%
Test B disease control rating ([3]; 200 ppm): 0%

CCC(C)Cn1c(-c2c(F)cc(F)cc2F)c(Cl)nc(-n2cncn2)c1=O (stereo not shown) [compound 20]
Test D disease control rating (Plasmopara viticola; 200 ppm): 0%
Test F disease control rating (Phytophthora infestans; 200 ppm): 30%
Test I disease control rating (fusarium graminearium; 200 ppm): 0%
Test K disease control rating ([1]; 200 ppm): 100%
Test E disease control rating (Botrytis cinerea; 200 ppm): 100%
Test H disease control rating (Septoria nodorum; 200 ppm): 98%
Test L disease control rating ([2]; 200 ppm): 98%
Test C disease control rating (Sclerotinia sclerotiorum; 200 ppm): 0%
Test A disease control rating (Pythium aphanidermatum; 200 ppm): 0%
Test G disease control rating (Rhizoctonia oryzae; 200 ppm): 26%
Test B disease control rating ([3]; 200 ppm): 0%

CCC(C)Cn1c(-c2c(F)cccc2F)c(Cl)nc(C#N)c1=O (stereo not shown) [compound 21]
Test D disease control rating (Plasmopara viticola; 200 ppm): 15%
Test F disease control rating (Phytophthora infestans; 200 ppm): 0%
Test I disease control rating (fusarium graminearium; 200 ppm): 0%
Test K disease control rating ([1]; 200 ppm): 96%
Test E disease control rating (Botrytis cinerea; 200 ppm): 99%
Test H disease control rating (Septoria nodorum; 200 ppm): 0%
Test L disease control rating ([2]; 200 ppm): 96%
Test C disease control rating (Sclerotinia sclerotiorum; 200 ppm): 0%
Test A disease control rating (Pythium aphanidermatum; 200 ppm): 0%
Test G disease control rating (Rhizoctonia oryzae; 200 ppm): 31%
Test B disease control rating ([3]; 200 ppm): 0%

CC(C)Cn1c(-c2cccc(Cl)c2Cl)c(Cl)nc(-n2cncn2)c1=O [compound 39]
Test D disease control rating (Plasmopara viticola; 200 ppm): 0%
Test F disease control rating (Phytophthora infestans; 200 ppm): 0%
Test I disease control rating (fusarium graminearium; 200 ppm): 0%
Test K disease control rating ([1]; 200 ppm): 67%
Test E disease control rating (Botrytis cinerea; 200 ppm): 99%
Test H disease control rating (Septoria nodorum; 200 ppm): 89%
Test L disease control rating ([2]; 200 ppm): 0%
Test C disease control rating (Sclerotinia sclerotiorum; 200 ppm): 0%
Test A disease control rating (Pythium aphanidermatum; 200 ppm): 0%
Test G disease control rating (Rhizoctonia oryzae; 200 ppm): 0%
Test B disease control rating ([3]; 200 ppm): 0%

CC(C)Cn1c(-c2c(Cl)cccc2Cl)c(Cl)nc(-n2cncn2)c1=O [compound 40]
Test D disease control rating (Plasmopara viticola; 200 ppm): 0%
Test F disease control rating (Phytophthora infestans; 200 ppm): 0%
Test I disease control rating (fusarium graminearium; 200 ppm): 0%
Test K disease control rating ([1]; 200 ppm): 99%
Test E disease control rating (Botrytis cinerea; 200 ppm): 100%
Test H disease control rating (Septoria nodorum; 200 ppm): 99%
Test L disease control rating ([2]; 200 ppm): 21%
Test C disease control rating (Sclerotinia sclerotiorum; 200 ppm): 0%
Test A disease control rating (Pythium aphanidermatum; 200 ppm): 0%
Test G disease control rating (Rhizoctonia oryzae; 200 ppm): 65%
Test B disease control rating ([3]; 200 ppm): 0%

CC(C)Cn1c(-c2cccc(Cl)c2Cl)c(Cl)nc(-n2cccn2)c1=O [compound 41]
Test D disease control rating (Plasmopara viticola; 200 ppm): 8%
Test F disease control rating (Phytophthora infestans; 200 ppm): 0%
Test I disease control rating (fusarium graminearium; 200 ppm): 0%
Test K disease control rating ([1]; 200 ppm): 83%
Test E disease control rating (Botrytis cinerea; 200 ppm): 100%
Test H disease control rating (Septoria nodorum; 200 ppm): 100%
Test L disease control rating ([2]; 200 ppm): 0%
Test C disease control rating (Sclerotinia sclerotiorum; 200 ppm): 98%
Test A disease control rating (Pythium aphanidermatum; 200 ppm): 0%
Test G disease control rating (Rhizoctonia oryzae; 200 ppm): 47%
Test B disease control rating ([3]; 200 ppm): 68%

CC(C)Cn1c(-c2cc(Cl)cc(Cl)c2)c(Cl)nc(-n2cccn2)c1=O [compound 42]
Test D disease control rating (Plasmopara viticola; 200 ppm): 0%
Test F disease control rating (Phytophthora infestans; 200 ppm): 0%
Test I disease control rating (fusarium graminearium; 200 ppm): 60%
Test K disease control rating ([1]; 200 ppm): 0%
Test E disease control rating (Botrytis cinerea; 200 ppm): 0%
Test H disease control rating (Septoria nodorum; 200 ppm): 0%
Test L disease control rating ([2]; 200 ppm): 0%
Test C disease control rating (Sclerotinia sclerotiorum; 200 ppm): 0%
Test A disease control rating (Pythium aphanidermatum; 200 ppm): 0%
Test G disease control rating (Rhizoctonia oryzae; 200 ppm): 0%
Test B disease control rating ([3]; 200 ppm): 0%

CC(C)Cn1c(-c2ccc(Cl)cc2F)c(Cl)nc(-n2cncn2)c1=O [compound 44]
Test D disease control rating (Plasmopara viticola; 40 ppm (*)): 0* %
Test F disease control rating (Phytophthora infestans; 40 ppm (*)): 0* %
Test I disease control rating (fusarium graminearium; 40 ppm (*)): 0* %
Test K disease control rating ([1]; 40 ppm (*)): 0* %
Test E disease control rating (Botrytis cinerea; 40 ppm (*)): 95* %
Test H disease control rating (Septoria nodorum; 40 ppm (*)): 0* %
Test L disease control rating ([2]; 40 ppm (*)): 0* %
Test C disease control rating (Sclerotinia sclerotiorum; 40 ppm (*)): 0* %
Test A disease control rating (Pythium aphanidermatum; 40 ppm (*)): 0* %
Test G disease control rating (Rhizoctonia oryzae; 40 ppm (*)): 16* %
Test B disease control rating ([3]; 40 ppm (*)): 0* %

CC(C)Cn1c(-c2ccc(C(F)(F)F)cc2F)c(Cl)nc(-n2cccn2)c1=O [compound 46]
Test D disease control rating (Plasmopara viticola; 200 ppm): 0%
Test F disease control rating (Phytophthora infestans; 200 ppm): 0%
Test I disease control rating (fusarium graminearium; 200 ppm): 78%
Test K disease control rating ([1]; 200 ppm): 0%
Test E disease control rating (Botrytis cinerea; 200 ppm): 0%
Test H disease control rating (Septoria nodorum; 200 ppm): 0%
Test L disease control rating ([2]; 200 ppm): 0%
Test C disease control rating (Sclerotinia sclerotiorum; 200 ppm): 0%
Test A disease control rating (Pythium aphanidermatum; 200 ppm): 0%
Test G disease control rating (Rhizoctonia oryzae; 200 ppm): 0%
Test B disease control rating ([3]; 200 ppm): 0%

CC(C)=NNc1nc(Cl)c(-c2c(F)cccc2F)n(CC(C)C)c1=O [compound 48]
Test D disease control rating (Plasmopara viticola; 200 ppm): 0%
Test F disease control rating (Phytophthora infestans; 200 ppm): 0%
Test I disease control rating (fusarium graminearium; 200 ppm): 0%
Test K disease control rating ([1]; 200 ppm): 80%
Test E disease control rating (Botrytis cinerea; 200 ppm): 83%
Test H disease control rating (Septoria nodorum; 200 ppm): 0%
Test L disease control rating ([2]; 200 ppm): 0%
Test C disease control rating (Sclerotinia sclerotiorum; 200 ppm): 0%
Test A disease control rating (Pythium aphanidermatum; 200 ppm): 0%
Test G disease control rating (Rhizoctonia oryzae; 200 ppm): 16%
Test B disease control rating ([3]; 200 ppm): 0%
